Reference: US20160038235A1, “INGENOL MEBUTATE IN COMBINATION WITH LASER THERAPY FOR THE TREATMENT OF HYPE[…] LESIONS” (LEO LABORATORIES LIMITED, priority 2013, published 2016)

Experiment: Penetration of ingenol mebutate in static in vitro Franz cell model after fractional Er:YAG laser pre-treatment
Assay type: in vitro ADME, porcine
Set-up: Uptake: unit not given here
Conditions: for Uptake: 21 h
Experimental: Penetration of Ingenol mebutate was investigated in a static in vitro Franz cell model, using porcine skin. Prior to ingenol mebutate application, the skin was pre-treated with a fractional 2940 Er:YAG laser. Two settings were used based on pulse durations at 125 or 225 μs, and power at 1.3 or 1.7 W, delivering total energies per laser channel at 11 or 128 mJ, respectively. The settings were investigated at 1, 5 and 10% densities. The shape and depth of the micropores were evaluated in a dissecting microscope. After 21 h in the Franz cells, stratum corneum was tape stripped and liquid chromatography-mass spectrometry (LC-MS) was used to analyze IngMeb concentrations in stratum corneum, skin and receptor fluid.

Question: With C/C=C(/C)C(=O)O[C@H]1C(C)=C[C@]23C(=O)[C@@H](C=C(CO)[C@@H](O)[C@]12O)[C@H]1[C@@H](C[C@H]3C)C1(C)C [ingenol mebutate] as the compound, how does the Uptake (1—No Laser, Dermis) read?
Answer: 508

Question: What about the Uptake (1—No Laser, Epidermis) of the same compound?
Answer: 606

Question: What about the Uptake (1—No Laser, Receiver) of the same compound?
Answer: 0

Question: What about the Uptake (1—No Laser, SC) of the same compound?
Answer: 708

Question: And the “Enhancement Factor” value (1—No Laser, Viable skin (reference))?
Answer: 1

Question: And the Uptake (1—No Laser, Viable skin)?
Answer: 1114

Question: And the Uptake (2—Superficial 1% (approx. 50 μm micropores), Viable skin)?
Answer: 1340

Question: And the Uptake (2—Superficial 1%, Dermis)?
Answer: 843

Question: What about the Uptake (2—Superficial 1%, Epidermis) of the same compound?
Answer: 558

Question: What about the Uptake (2—Superficial 1%, Receiver) of the same compound?
Answer: 122

Question: And the Uptake (2—Superficial 1%, SC)?
Answer: 603

Question: What about the “Enhancement Factor” value (2—Superficial 1%, Viable skin, vs No laser) of the same compound?
Answer: 1.20

Question: What about the Uptake (3—Superficial 5%, Dermis) of the same compound?
Answer: 1584

Question: And the Uptake (3—Superficial 5%, Epidermis)?
Answer: 568

Question: And the Uptake (3—Superficial 5%, Receiver)?
Answer: 408

Question: And the Uptake (3—Superficial 5%, SC)?
Answer: 135

Question: What about the Uptake (3—Superficial 5%, Viable skin) of the same compound?
Answer: 2152

Question: And the “Enhancement Factor” value (3—Superficial 5%, Viable skin, vs No laser)?
Answer: 1.93

Question: What about the Uptake (4—Superficial 10%, Dermis) of the same compound?
Answer: 1801

Question: And the Uptake (4—Superficial 10%, Epidermis)?
Answer: 388

Question: And the Uptake (4—Superficial 10%, Receiver)?
Answer: 547

Question: And the Uptake (4—Superficial 10%, SC)?
Answer: 59

Question: And the Uptake (4—Superficial 10%, Viable skin)?
Answer: 2189

Question: What about the “Enhancement Factor” value (4—Superficial 10%, Viable skin, vs No laser) of the same compound?
Answer: 1.97

Question: And the Uptake (5—Mid-Dermal-1% (approx. 500 μm micropores), Viable skin)?
Answer: 1510

Question: What about the Uptake (5—Mid-Dermal-1%, Dermis) of the same compound?
Answer: 1076

Question: And the Uptake (5—Mid-Dermal-1%, Epidermis)?
Answer: 366

Question: And the Uptake (5—Mid-Dermal-1%, Receiver)?
Answer: 304

Question: What about the Uptake (5—Mid-Dermal-1%, SC) of the same compound?
Answer: 369

Question: And the “Enhancement Factor” value (5—Mid-Dermal-1%, Viable skin, vs No laser)?
Answer: 1.35

Question: And the Uptake (6—Mid-Dermal 5%, Dermis)?
Answer: 1744

Question: What about the Uptake (6—Mid-Dermal 5%, Epidermis) of the same compound?
Answer: 386

Question: And the Uptake (6—Mid-Dermal 5%, Receiver)?
Answer: 677

Question: What about the Uptake (6—Mid-Dermal 5%, SC) of the same compound?
Answer: 127

Question: What about the Uptake (6—Mid-Dermal 5%, Viable skin) of the same compound?
Answer: 2126

Question: What about the “Enhancement Factor” value (6—Mid-Dermal 5%, Viable skin, vs No laser) of the same compound?
Answer: 1.91

Question: What about the Uptake (7—Mid-Dermal 10%, Dermis) of the same compound?
Answer: 1986

Question: And the Uptake (7—Mid-Dermal 10%, Epidermis)?
Answer: 260

Question: What about the Uptake (7—Mid-Dermal 10%, Receiver) of the same compound?
Answer: 622

Question: What about the Uptake (7—Mid-Dermal 10%, SC) of the same compound?
Answer: 9

Question: And the Uptake (7—Mid-Dermal 10%, Viable skin)?
Answer: 2224

Question: What about the “Enhancement Factor” value (7—Mid-Dermal 10%, Viable skin, vs No laser) of the same compound?
Answer: 2.00

Question: And the “accumulation in the epidermis, laser compared with no laser pre-treatment” value (10% density at 50 μm micropores, all densities at 500 μm micropores)?
Answer: decreased ingenol mebutate in the epidermis

Question: What about the “accumulation in stratum corneum (SC), laser pre-treatment compared with no laser pre-treatment” value (50 μm and 500 μm micropores, decreasing with increasing density) of the same compound?
Answer: less ingenol mebutate was accumulated

Question: What about the “increase in ingenol mebutate in the dermis with laser pre-treatment compared with no laser pre-treatment” value (density dependent (1-10%)) of the same compound?
Answer: 1.7-3.9 fold

Question: And the “dermis uptake, 10% density compared with 5%, and 500 μm compared with 50 μm micropores” value (laser pre-treatment)?
Answer: no added benefit was observed

Question: What about the “improved uptake in the epidermis relative to uptake without use of the laser” value (maximum) of the same compound?
Answer: ≤ 4 times

Question: What about the “delivery of ingenol mebutate to dermis, increase following laser pre-treatment compared to no laser pre-treatment” value (maximum increase) of the same compound?
Answer: ≤ 4 fold
